Measurements from patent US6365217B2, “N-[N-(3,3-dimethylbutyl)-L-α-aspartyl]-L-phenylalanine 1-methyl ester agglomerate” (The Nutra Sweet Company, priority 1999, dated 2002).
Residues, ends and D or L forms follow the SMILES beside them.

Tests used:
[1] = Solubility in water, ethanol and organic solvents; format: physicochemical
[2] = relative to sucrose; cited from earlier work
[3] = under some pH conditions, compared with aspartame; cited from earlier work

solubility in ethanol [1] | solubility in water ([1]; water) | SMILES | solubility in organic solvents ([1]; compared with aspartame) | sweetening potency [2] | stability [3]
greater than 100 g/100 ml | about 1% | COC(=O)[C@H](Cc1ccccc1)NC(=O)[C@H](CC(=O)O)NCCC(C)(C)C [N-[N-(3,3-dimethylbutyl)-L-α-aspartyl]-L-phenylalanine 1-methyl ester] | much higher solubility in organic solvents than aspartame | about 8,000 times | higher stability than aspartame
less than 0.1% |  | COC(=O)[C@H](Cc1ccccc1)NC(=O)[C@@H](N)CC(=O)O [aspartame, reference compound] (H-Asp-Phe-OMe) |  |  | 
